Reference: PubChem BioAssay (NCI)
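96-well plates; 48 h exposure; 5 concentrations. Endpoints by linear interpolation between flanking doses. Not reached: highest tested concentration assigned. TGI: concentration producing complete growth inhibition.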

Experiments:
Experiment in all cases: growth of human tumour cells (NCI), 48 h
M14 melanoma = system: M14 melanoma
NCI-H23 lung = system: NCI-H23 lung
HT29 colon = system: HT29 colon
SF-295 CNS = system: SF-295 CNS
MDA-MB-231 breast = system: MDA-MB-231 breast
U251 CNS = system: U251 CNS
TK-10 renal = system: TK-10 renal
NCI-H460 lung = system: NCI-H460 lung
SNB-19 CNS = system: SNB-19 CNS
DU-145 prostate = system: DU-145 prostate
OVCAR-3 ovarian = system: OVCAR-3 ovarian
HCT-15 colon = system: HCT-15 colon
COLO 205 colon = system: COLO 205 colon
MALME-3M melanoma = system: MALME-3M melanoma
KM12 colon = system: KM12 colon
SNB-75 CNS = system: SNB-75 CNS
NCI/ADR-RES ovarian = system: NCI/ADR-RES ovarian
HOP-62 NSCLC = system: HOP-62 NSCLC
SK-MEL-5 melanoma = system: SK-MEL-5 melanoma
RPMI-8226 leukemia = system: RPMI-8226 leukemia
OVCAR-8 ovarian = system: OVCAR-8 ovarian
OVCAR-4 ovarian = system: OVCAR-4 ovarian
MDA-N = system: MDA-N
A549 NSCLC = system: A549 NSCLC
SK-MEL-2 melanoma = system: SK-MEL-2 melanoma
A498 renal = system: A498 renal
CAKI-1 renal = system: CAKI-1 renal
K-562 leukemia = system: K-562 leukemia
UACC-62 melanoma = system: UACC-62 melanoma
786-0 renal = system: 786-0 renal
SF-539 CNS = system: SF-539 CNS
RXF 393 renal = system: RXF 393 renal
OVCAR-5 ovarian = system: OVCAR-5 ovarian
PC-3 prostate = system: PC-3 prostate
T-47D breast = system: T-47D breast
ACHN renal = system: ACHN renal
SF-268 CNS = system: SF-268 CNS
MDA-MB-435 = system: MDA-MB-435
SN12C renal = system: SN12C renal
NCI-H522 lung = system: NCI-H522 lung
EKVX NSCLC = system: EKVX NSCLC
MOLT-4 leukemia = system: MOLT-4 leukemia
CCRF-CEM leukemia = system: CCRF-CEM leukemia
SK-OV-3 ovarian = system: SK-OV-3 ovarian
UO-31 renal = system: UO-31 renal
HL-60(TB) leukemia = system: HL-60(TB) leukemia
HCC-2998 colon = system: HCC-2998 colon
NCI-H226 lung = system: NCI-H226 lung
HS 578T breast = system: HS 578T breast
MCF7 breast = system: MCF7 breast
BT-549 breast = system: BT-549 breast
UACC-257 melanoma = system: UACC-257 melanoma
HCT-116 colon = system: HCT-116 colon
IGROV1 ovarian = system: IGROV1 ovarian
SR leukemia = system: SR leukemia
SK-MEL-28 melanoma = system: SK-MEL-28 melanoma
SW-620 colon = system: SW-620 colon
LOX IMVI melanoma = system: LOX IMVI melanoma

Cc1cc(N(CCC#N)CCC#N)ccc1/C(N=Nc1ccc(Cl)cc1)=N\NC(=O)c1ccccc1
TGI (M14 melanoma): > 100 µM | TGI (NCI-H23 lung): > 100 µM | TGI (HT29 colon): 47.6 µM | TGI (SF-295 CNS): 77.6 µM | TGI (MDA-MB-231 breast): > 100 µM | TGI (U251 CNS): > 100 µM | TGI (TK-10 renal): > 100 µM | TGI (NCI-H460 lung): > 100 µM | TGI (SNB-19 CNS): > 100 µM | TGI (DU-145 prostate): > 100 µM | TGI (OVCAR-3 ovarian): > 100 µM | TGI (HCT-15 colon): > 100 µM | TGI (COLO 205 colon): 94.1 µM | TGI (MALME-3M melanoma): > 100 µM | TGI (KM12 colon): > 100 µM | TGI (SNB-75 CNS): > 100 µM | TGI (NCI/ADR-RES ovarian): > 100 µM | TGI (HOP-62 NSCLC): > 100 µM | TGI (SK-MEL-5 melanoma): > 100 µM | TGI (RPMI-8226 leukemia): > 100 µM | TGI (OVCAR-8 ovarian): > 100 µM | TGI (OVCAR-4 ovarian): > 100 µM | TGI (MDA-N): 74.2 µM | TGI (A549 NSCLC): > 100 µM | TGI (SK-MEL-2 melanoma): > 100 µM | TGI (A498 renal): 58.5 µM | TGI (CAKI-1 renal): > 100 µM | TGI (K-562 leukemia): > 100 µM | TGI (UACC-62 melanoma): > 100 µM | TGI (786-0 renal): > 100 µM | TGI (SF-539 CNS): 50.8 µM | TGI (RXF 393 renal): > 100 µM | TGI (OVCAR-5 ovarian): > 100 µM | TGI (PC-3 prostate): > 100 µM | TGI (T-47D breast): 88.3 µM | TGI (ACHN renal): > 100 µM | TGI (SF-268 CNS): > 100 µM | TGI (MDA-MB-435): 76.8 µM | TGI (SN12C renal): > 100 µM | TGI (NCI-H522 lung): 48.1 µM | TGI (EKVX NSCLC): > 100 µM | TGI (MOLT-4 leukemia): > 100 µM | TGI (CCRF-CEM leukemia): > 100 µM | TGI (SK-OV-3 ovarian): > 100 µM | TGI (UO-31 renal): > 100 µM | TGI (HL-60(TB) leukemia): > 100 µM | TGI (HCC-2998 colon): > 100 µM | TGI (NCI-H226 lung): > 100 µM | TGI (HS 578T breast): 55 µM | TGI (MCF7 breast): > 100 µM | TGI (BT-549 breast): > 100 µM | TGI (UACC-257 melanoma): > 100 µM | TGI (HCT-116 colon): > 100 µM | TGI (IGROV1 ovarian): > 100 µM | TGI (SR leukemia): > 100 µM

O=C1CCC(=O)N1n1c(Cc2ccccc2)n[nH]c1=O
TGI (M14 melanoma): > 100 µM | TGI (HT29 colon): > 100 µM | TGI (SF-295 CNS): > 100 µM | TGI (MDA-MB-231 breast): > 100 µM | TGI (SK-MEL-28 melanoma): > 100 µM | TGI (U251 CNS): > 100 µM | TGI (TK-10 renal): > 100 µM | TGI (NCI-H460 lung): > 100 µM | TGI (SNB-19 CNS): > 100 µM | TGI (DU-145 prostate): > 100 µM | TGI (OVCAR-3 ovarian): > 100 µM | TGI (HCT-15 colon): > 100 µM | TGI (COLO 205 colon): > 100 µM | TGI (MALME-3M melanoma): > 100 µM | TGI (KM12 colon): 46.4 µM | TGI (SNB-75 CNS): > 100 µM | TGI (NCI/ADR-RES ovarian): > 100 µM | TGI (HOP-62 NSCLC): > 100 µM | TGI (SK-MEL-5 melanoma): > 100 µM | TGI (RPMI-8226 leukemia): > 100 µM | TGI (OVCAR-8 ovarian): > 100 µM | TGI (OVCAR-4 ovarian): > 100 µM | TGI (MDA-N): > 100 µM | TGI (A549 NSCLC): > 100 µM | TGI (SW-620 colon): > 100 µM | TGI (LOX IMVI melanoma): > 100 µM | TGI (SK-MEL-2 melanoma): > 100 µM | TGI (A498 renal): > 100 µM | TGI (CAKI-1 renal): > 100 µM | TGI (K-562 leukemia): > 100 µM | TGI (UACC-62 melanoma): > 100 µM | TGI (786-0 renal): > 100 µM | TGI (RXF 393 renal): > 100 µM | TGI (OVCAR-5 ovarian): > 100 µM | TGI (PC-3 prostate): > 100 µM | TGI (T-47D breast): > 100 µM | TGI (ACHN renal): > 100 µM | TGI (SF-268 CNS): > 100 µM | TGI (MDA-MB-435): > 100 µM | TGI (SN12C renal): > 100 µM | TGI (NCI-H522 lung): > 100 µM | TGI (EKVX NSCLC): > 100 µM | TGI (MOLT-4 leukemia): > 100 µM | TGI (CCRF-CEM leukemia): > 100 µM | TGI (SK-OV-3 ovarian): > 100 µM | TGI (UO-31 renal): > 100 µM | TGI (HCC-2998 colon): > 100 µM | TGI (NCI-H226 lung): > 100 µM | TGI (HS 578T breast): > 100 µM | TGI (MCF7 breast): > 100 µM | TGI (BT-549 breast): > 100 µM | TGI (UACC-257 melanoma): > 100 µM | TGI (HCT-116 colon): > 100 µM | TGI (IGROV1 ovarian): > 100 µM | TGI (SR leukemia): > 100 µM
